pIC50: −log10 of the molar value. Several values for one entry are separate records, joined by “and”; a condition that tells them apart may be missing. Equal values may be shown once.
Legend:
[1] = parameters: method as in PMID 6417628; conditions: patients with rheumatoid arthritis treated for an average of 6 months; cited from earlier work
[2] = system: Recombinant B. malayi TrxR (rBmTrxR); experiment: Recombinant B. malayi TrxR (rBmTrxR) DTNB inhibition assay; type: biochemical, Brugia malayi
Procedure: Recombinant 6-His-tagged B. malayi TrxR (rBmTrxR) was produced in E. coli BL21(DE3) in the presence of pSUABC [29] in LB medium supplemented with 20 μg/mL riboflavin under conditions for optimal selenoprotein expression. An overnight starter culture in LB with 50 μg/mL ampicillin and 34 μg/mL chloramphenicol was diluted (1:100) into in LB medium with the same antibiotics. When the culture reached an OD600 = 0.8, the medium was supplemented with 5 μM sodium selenite and 100 μg/mL L-cysteine. When the culture OD600 = 2, riboflavin (20 μg/mL) was added and protein expression was induced by the addition of isopropyl β-D-1-thiogalactopyranoside (50 μM). At this point the cultures were shifted to 24°C and incubated for 24 hr. Cells were collected by centrifugation, lysed by alternative freeze-thaw cycles, and resuspended in lysis buffer (50 mM potassium phosphate, pH 7.8, 500 mM NaCl, 30 mM imidazole, 1 mg/mL lysozyme, 1 mM phenylmethanesulfonylfluoride) supplemented with 100 μM flavin adenine dinucleotide. The sample was sonicated and cellular debris pelleted at 25,000 x g at 4°C for 25 min. The supernatant was collected and filtered through a 0.45 μm filter before purification by immobilized metal ion affinity chromatography using a His-Trap FF column (GE Healthcare). The column was washed with 10 column volumes binding buffer (50 mM potassium phosphate, pH 7.8, 500 mM NaCl, 30 mM imidazole) and then with 5 column volumes of buffer A (binding buffer with 100 mM imidazole). TrxR protein was eluted in 3 × 1 mL buffer B (binding buffer with 500 mM imidazole).Protein was concentrated (Amicon Ultra-4 10K) and purity was verified by SDS-PAGE and quantified by absorbance at 280 nm (ε = 69.76 mM^-1 cm^-1).
rBmTrxR activity was assayed in 0.1 M potassium phosphate (pH 7.2) with 10 mM EDTA and 25 nM rBmTrxR. rBmTxrR was pre-incubated for 20 min with NADPH (100 μM) and auranofin (ICN Pharmaceuticals, now Valeant Pharmaceuticals, Bridgewater, NJ) or aurothioglucose (USP Reference Standards, Rockville, MD) in DMSO in 100 μL, followed by addition of an equal volume of buffer with NADPH (200 μM) and DTNB (6 mM) with reaction progress monitored at λ = 412 nm for TNB production. The concentration of DMSO in all reactions was 3.5%.

[3] = Plasma gold levels (elemental gold analysis) in Brugia infected gerbils; type: in vivo, Mongolian gerbils (Meriones unguiculatus)
Procedure: Animal studies were performed under IACUC approval #AN085723–02 to test the efficacy of auranofin in vivo. Male Mongolian gerbils (Meriones unguiculatus, Charles River Laboratories International, Inc., Wilmington, MA) were injected intraperitoneally (IP) with 300 B. pahangi L3 (Filariatech, Inc., Athens, GA) and treated 3 months post-infection. Auranofin was dissolved in 100% ethanol at 4 mg/mL and mixed 1:1 with PBS. Vehicle doses consisted of the same mixture of ethanol and PBS but without auranofin. Doses (up to 200 μl) were given to gerbils orally at 5 mg/kg body weight, BID weekdays and SID weekends for a total of 48 doses over 4 weeks.
Two studies (Study 1 and Study 2) were conducted using the same protocols and the same dosing schedule except that in Study 1, two gerbils from the auranofin treatment group and two gerbils from the vehicle group were treated for 14 days and were necropsied 2 hours after their last dose (interim necropsy) to determine plasma gold levels (from auranofin). The remaining gerbils in Study 1 were treated for 28 days and were necropsied 11, 14, or 16 days after the end of dosing. In Study 2, all gerbils were treated for 28 days and were necropsied 16 days after the end of dosing. For both of these in vivo studies, worms were collected from the gerbil’s peritoneal cavity, counted, sexed and examined under a dissecting microscope. For each study a two-tailed Student’s T-test assuming equal variance was conducted using Microsoft Excel to determine the statistical significance of the difference in mean worm retrieval between the auranofin treated and vehicle treated groups. Gerbil blood was collected by cardiac puncture and plasma was sent to NMS Labs, Willow Grove, PA to determine plasma gold levels (elemental gold analysis) by graphite furnace atomic absorption spectroscopy.

adult B. malayi = experiment: Adult Brugia malayi worm motility assay (Worminator) in vitro; type: cell-based; conditions: for pIC50: B. malayi, Adult, Day 3, motility
Procedure: Adult female and male Brugia (B. malayi and B. pahangi) were shipped from TRS Labs Inc., Athens, GA and assayed using methods described by Marcellino et al. (2012). Individual females were placed in each well of a 24-well plate with media (RPMI-1640 with 25 mM HEPES, 2.0 g/L NaHCO3, 5% heat inactivated FBS, and 1X Antibiotic/Antimycotic solution). Excess media was removed from plates using a Biomek FxP, leaving 500 μL of media per well. Initial screening of a library of FDA-approved compounds, compiled by the Small Molecule Discovery Center at the University of California San Francisco, was conducted at 10 μM per compound, and 1% DMSO was used as a negative control. All drugs including auranofin (Enzo Life Sciences, Farmingdale, NY) were dissolved in DMSO (Sigma-Aldrich, St. Louis, MO) and 10 mM stock solutions were stored at -20°C. Four worms were used as replicates for each concentration and worm plates were kept in a 37°C, 5% CO2 incubator for four days.
To determine the effect of a compound on worm motility, individual worm movements were counted as the number of pixels displaced per second by each worm in each well using the Worminator. Each plate of worms was video recorded for approximately 60 seconds, and mean movement units (MMUs) were determined for individual worms. Percent inhibition of motility was calculated by dividing the MMUs of the treated worms by the control average MMUs, subtracting the value from 1.0, flooring the values to zero and multiplying by 100%. Videos were recorded for 4 days, including the first day of the assay (Day 0). IC50 determinations were conducted at 10 μM, 3 μM, 1 μM, 0.3 μM, 0.1 μM and 0.03 μM, with 1% DMSO used as a control. IC50 assays were repeated at the same concentrations and at six point, three-fold dilutions from 1 μM to 0.003 μM or 3 μM to […] to ensure that activity was consistent between assays. Prism 4.0 was used to calculate IC50 values using a non-linear regression curve fit. The means of all IC50s with R^2 values greater than or equal to 0.7 are reported.

CC[PH](CC)(CC)[Au][S][C@@H]1O[C@H](COC(C)=O)[C@@H](OC(C)=O)[C@H](OC(C)=O)[C@H]1OC(C)=O [auranofin, 2,3,4,6-tetra-O-acetyl-1-thio-beta-D-glucopyranosato-S (triethylphosphine) gold]
side effects [1]: few side effects, with the most common side effect being diarrhea | mode of inhibition of rBmTrxR [2]: irreversibly inhibit rBmTrxR at a one-to-one molar ratio | pIC50 ([2]; 25 nM rBmTrxR, 20 min pre-incubation with NADPH, DTNB substrate): 8.52 | mean plasma gold level ([3]; Study 1, 16 days after the last dose): 701 nM | mean plasma gold level ([3]; Study 2, 16 days after the last dose): 609 nM | Plasma gold levels ([3]; Study #1, 2 hours after last dose, interim necropsy after 14 days of treatment, 5 mg/kg oral, individual gerbils, 5 mg/kg): 1700 µg/L and 1000 µg/L | Plasma gold levels ([3]; Study #1, 11 days after last dose, 28 days of treatment): 270 µg/L | Plasma gold levels ([3]; Study #1, 14 days after last dose, 28 days of treatment): 340 µg/L | Plasma gold levels ([3]; Study #1, 16 days after last dose, individual gerbils, values less than 100 μg/L given as zero): 170 µg/L and 190 µg/L and 160 µg/L | Concentration of gold ([3]; Study #1, plasma, 2 hours after last dose, interim necropsy after 14 days of treatment, individual gerbils): 5080 nM and 8630 nM and 8631 nM and 5077 nM | Concentration of gold ([3]; Study #1, plasma, 11 days after last dose): 1371 nM | Concentration of gold ([3]; Study #1, plasma, 14 days after last dose): 1726 nM | Concentration of gold ([3]; Study #1, plasma, 16 days after last dose, individual gerbils, values less than 508 nM given as zero): 863 nM and 965 nM and 812 nM | Plasma gold levels ([3]; Study #2, 16 days after last dose, individual gerbils, values less than 100 μg/L given as zero): 130 µg/L and 190 µg/L and 160 µg/L | Concentration of gold ([3]; Study #2, plasma, 16 days after last dose, individual gerbils, values less than 508 nM given as zero): 660 nM and 965 nM and 812 nM | gold levels in blood ([3]; approximately 2 weeks after the last dose): 0.66 µM | pIC50 (adult B. malayi; Female): 5.96 | pIC50 (adult B. malayi; Male): 6.52 | inhibition of motility (adult B. malayi; female B. malayi, 3 μM, within 18 hours of incubation): 97%

Reference: paper PMC4336141, “Repurposing Auranofin as a Lead Candidate for Treatment of Lymphatic Filariasis and Onchocerciasis” (PLoS Neglected Tropical Diseases, 2015)
